Results on 5 molecules are retold here after ChEMBL document CHEMBL2074356, “Direct evidence for peptide transporter (PepT1)-mediated uptake of a nonpeptide prodrug, valacyclovir” (Biochem Biophys Res Commun, 1998).

Non-standard residues stand in square brackets, D forms with d. Residues, ends and D or L forms follow the SMILES beside them. Sar = CNCC(=O)O

For orientation: Ki means a dissociation constant, usually derived from enzyme kinetics or from competition with a known ligand. One may read the Km as the concentration of substrate that gives half-maximal velocity.

The target in data set [1] is T1, Solute carrier family 15 member 1 (Homo sapiens, UniProt P46059).
T1 sequence (P46059 whole entry): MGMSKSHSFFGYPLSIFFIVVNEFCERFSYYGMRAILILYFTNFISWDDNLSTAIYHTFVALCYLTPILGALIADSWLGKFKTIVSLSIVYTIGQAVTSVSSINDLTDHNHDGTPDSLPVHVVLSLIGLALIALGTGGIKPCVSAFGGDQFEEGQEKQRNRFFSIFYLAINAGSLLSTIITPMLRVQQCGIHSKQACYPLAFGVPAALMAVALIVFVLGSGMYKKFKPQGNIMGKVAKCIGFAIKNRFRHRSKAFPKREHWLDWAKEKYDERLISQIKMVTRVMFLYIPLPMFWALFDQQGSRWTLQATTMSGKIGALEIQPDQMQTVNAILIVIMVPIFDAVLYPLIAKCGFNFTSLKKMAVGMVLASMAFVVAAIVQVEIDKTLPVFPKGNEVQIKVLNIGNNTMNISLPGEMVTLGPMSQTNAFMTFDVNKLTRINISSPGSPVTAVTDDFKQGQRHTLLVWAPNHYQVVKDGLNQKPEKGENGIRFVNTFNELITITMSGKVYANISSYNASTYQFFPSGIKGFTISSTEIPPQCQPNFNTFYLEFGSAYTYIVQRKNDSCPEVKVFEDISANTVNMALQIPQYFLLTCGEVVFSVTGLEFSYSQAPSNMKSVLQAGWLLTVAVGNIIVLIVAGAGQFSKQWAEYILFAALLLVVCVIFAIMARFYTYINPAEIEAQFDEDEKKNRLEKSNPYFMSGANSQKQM
The experiment in a line: TP_TRANSPORTER: inhibition of Gly-Sar uptake in Xenopus laevis oocytes. Format: functional, cell-based, Oocyte.

Data set [2] deals with T2, Solute carrier family 15 member 1 (Homo sapiens) (UniProt P46059).
T2 sequence (whole entry): T1 sequence (P46059 whole entry)
Nature of the data set: TP_TRANSPORTER: inhibition of VACV uptake (VACV: 0.2 uM, Gly-Gly-Gly: 10000 uM) in Xenopus laevis oocytes. Format: functional, cell-based. The following applies: Oocyte.

The target of data set [3] is T2, Solute carrier family 15 member 1 (Homo sapiens). Nature of the data set: TP_TRANSPORTER: inhibition of VACV uptake (VACV: 0.2 uM, Gly-Sar: 10000 uM) in Xenopus laevis oocytes. Format: functional, cell-based. The following applies: Oocyte.
The target is the same in data set [4]. The experiment in a line: TP_TRANSPORTER: inhibition of VACV uptake (VACV: 0.2 uM, Carnosine: 10000 uM) in Xenopus laevis oocytes. The following applies: Oocyte. Format: functional, cell-based.
Substrate in data set [5]: CC(C)[C@H](N)C(=O)OCCOCn1cnc2c(=O)nc(N)[nH]c21
The following applies: Xenopus laevis; Oocyte.

On to `CC(C)[C@H](N)C(=O)OCCOCn1cnc2c(=O)[nH]c(N)nc21` [VALACYCLOVIR], for which the inhibition constant Ki in data set [1] came to 4.08 mM. In other words, the millimolar range.
Take `NCC(=O)NCC(=O)NCC(=O)O`: the Activity entry in data set [2] is “inhibitor [55% (at a rough estimate) of control]”.
For the molecule `CN(CC(=O)O)C(=O)CN` (H-Gly-[Sar]-OH), the Activity result in data set [3] is “inhibitor [55% (at a rough estimate) of control]”.
With `NCCC(=O)N[C@@H](Cc1c[nH]cn1)C(=O)O`, the Activity result in data set [4] is “inhibitor [70% (at a rough estimate) of control]”.

B1: Solute carrier family 15 member 1 (Homo sapiens), P46059 (protein)
chain: T1 sequence (P46059 whole entry)
In the case of B1, in data set [5], the Michaelis constant (Km) was 5.94 mM.
